Results reported in ChEMBL document CHEMBL4765344, “Expanding the anticancer potential of 1,2,3-triazoles via simultaneously targeting Cyclooxygenase-2, 15-lipoxygenase and tumor-associated carbonic anhydrases” (Eur J Med Chem, 2020).

How the values were obtained:
[1] = system: MCF7; assay: Antiproliferative activity against human MCF-7 cells assessed as cell growth inhibition measured after 72 hrs by SRB assay; type: functional, cell-based; settings: MCF7, 72 h
[2] = system: A549; assay: Induction of cell cycle arrest in human A549 cells assessed as accumulation at pre-G1 phase at IC50 measured after 24 hrs by propidium iodide/RNase staining based flow cytometry (reference value: 1.93%); type: functional
[3] = Toxicity in BALB/c mouse xenografted with human MCF7 cells assessed as body weight at 23 mg/kg, ip administered thrice a week for 28 days measured on day 28 (reference value: 31.3 gms); type: organism-based; settings: in vivo, 672 h, time 28 day
[4] = system: MCF7; assay: Induction of apoptosis in human MCF7 cells assessed as fold change in caspase-9 expression at IC50 by ELISA relative to control; type: functional
[5] = system: HepG2; assay: Antiproliferative activity against human HepG2 cells assessed as cell growth inhibition measured after 72 hrs by SRB assay; type: functional, cell-based; settings: HepG2, 72 h
[6] = system: HepG2; assay: Antiproliferative activity against human HepG2 cells assessed as inhibition of cell growth at 100 microM measured after 72 hrs by SRB assay; type: functional
[7] = system: MCF7; assay: Induction of cell cycle arrest in human MCF7 cells assessed as accumulation at S phase at IC50 measured after 24 hrs by propidium iodide/RNase staining based flow cytometry (reference value: 29.88%); type: functional
[8] = system: A549; assay: Induction of cell cycle arrest in human A549 cells assessed as accumulation at G2/M phase at IC50 measured after 24 hrs by propidium iodide/RNase staining based flow cytometry (reference value: 9.86%); type: functional
[9] = system: A549; assay: Induction of apoptosis in human A549 cells assessed as late apoptotic cells at IC50 measured after 24 hrs by annexin V-FITC staining based flow cytometry (reference value: […]); type: functional
[10] = system: A549; assay: Induction of apoptosis in human A549 cells assessed as caspase-9 expression at IC50 by ELISA (reference value: […] +/- […] ng/ml); type: functional
[11] = system: MCF7; assay: Induction of apoptosis in human MCF7 cells assessed as Bax expression at IC50 by ELISA (reference value: 45.46 +/- 3.6 pg/ml); type: functional
[12] = system: A549; assay: Induction of apoptosis in human A549 cells assessed as early apoptotic cells at IC50 measured after 24 hrs by annexin V-FITC staining based flow cytometry (reference value: 0.63%); type: functional
[13] = system: A549; assay: Induction of apoptosis in human A549 cells assessed as fold change in Bcl2 expression at IC50 by ELISA relative to control; type: functional
[14] = system: WI-38; assay: Cytotoxicity against human WI-38 cells assessed as reduction in cell viability after 72 hrs by SRB assay; type: cell-based; settings: WI-38, 72 h
[15] = system: MCF7; assay: Induction of apoptosis in human MCF7 cells assessed as fold change in Bcl-2 expression at IC50 by ELISA relative to control; type: functional
[16] = system: MCF7; assay: Induction of apoptosis in human MCF-7 cells assessed as early apoptotic cells at IC50 measured after 24 hrs by Annexin V-FITC/propidium iodide staining based flow cytometry (reference value: 0.4%); type: functional
[17] = system: A549; assay: Antiproliferative activity against human A549 cells assessed as inhibition of cell growth at 100 microM measured after 72 hrs by SRB assay; type: functional
[18] = system: MCF7; assay: Induction of cell cycle arrest in human MCF7 cells assessed as increase in accumulation at pre-G1 phase at IC50 measured after 24 hrs by propidium iodide/RNase staining based flow cytometry relative to control; type: functional
[19] = system: MCF7; assay: Induction of apoptosis in human MCF7 cells assessed as caspase-9 expression at IC50 by ELISA (reference value: 1.77 +/- 0.1 ng/ml); type: functional
[20] = system: MCF7; assay: Induction of cell cycle arrest in human MCF7 cells assessed as reduction in accumulation at G0/G1 phase at IC50 measured after 24 hrs by propidium iodide/RNase staining based flow cytometry relative to control; type: functional
[21] = system: A549; assay: Induction of apoptosis in human A549 cells assessed as Bax expression at IC50 by ELISA (reference value: 42.16 +/-6.2 pg/ml); type: functional
[22] = system: MCF7; assay: Induction of cell cycle arrest in human MCF7 cells assessed as accumulation at pre-G1 phase at IC50 measured after 24 hrs by propidium iodide/RNase staining based flow cytometry (reference value: 1.96%); type: functional
[23] = Toxicity in ip dosed BALB/c mouse measured for 3 days; type: organism-based; settings: in vivo, time 3 day
[24] = system: MCF7; assay: Induction of apoptosis in human MCF-7 cells assessed as late apoptotic cells at IC50 measured after 24 hrs by Annexin V-FITC/propidium iodide staining based flow cytometry (reference value: […]); type: functional
[25] = system: A549; assay: Induction of apoptosis in human A549 cells assessed as total apoptotic cells at IC50 measured after 24 hrs by Annexin V-FITC/propidium iodide staining based flow cytometry (reference value: 0.92%); type: functional
[26] = system: MCF7; assay: Induction of apoptosis in human MCF-7 cells assessed as necrotic cells at IC50 measured after 24 hrs by Annexin V-FITC/propidium iodide staining based flow cytometry (reference value: 1.27%); type: functional
[27] = system: MCF7; assay: Induction of cell cycle arrest in human MCF7 cells assessed as accumulation at G2/M phase at IC50 measured after 24 hrs by propidium iodide/RNase staining based flow cytometry (reference value: 18.4%); type: functional
[28] = system: A549; assay: Induction of cell cycle arrest in human A549 cells assessed as accumulation at G0/G1 phase at IC50 measured after 24 hrs by propidium iodide/RNase staining based flow cytometry (reference value: 58.26%); type: functional
[29] = system: MCF7; assay: Induction of cell cycle arrest in human MCF7 cells assessed as accumulation at G0/G1 phase at IC50 measured after 24 hrs by propidium iodide/RNase staining based flow cytometry (reference value: 51.72%); type: functional
[30] = system: MCF7; assay: Induction of cell cycle arrest in human MCF7 cells assessed as increase in accumulation at G2/M phase at IC50 measured after 24 hrs by propidium iodide/RNase staining based flow cytometry relative to control; type: functional
[31] = system: A549; assay: Induction of cell cycle arrest in human A549 cells assessed as accumulation at S phase at IC50 measured after 24 hrs by propidium iodide/RNase staining based flow cytometry (reference value: 31.88%); type: functional
[32] = system: A549; assay: Induction of apoptosis in human A549 cells assessed as fold change in Bax expression at IC50 by ELISA relative to control; type: functional
[33] = system: MCF7; assay: Induction of apoptosis in human MCF-7 cells assessed as total apoptotic cells at IC50 measured after 24 hrs by Annexin V-FITC/propidium iodide staining based flow cytometry (reference value: 0.69%); type: functional
[34] = system: A549; assay: Induction of apoptosis in human A549 cells assessed as necrotic cells at IC50 measured after 24 hrs by annexin V-FITC staining based flow cytometry (reference value: 1.01%); type: functional
[35] = system: MCF7; assay: Induction of apoptosis in human MCF7 cells assessed as Bcl-2 expression at IC50 by ELISA (reference value: 7.49 +/- 0.1 ng/ml); type: functional
[36] = system: A549; assay: Antiproliferative activity against human A549 cells assessed as cell growth inhibition measured after 72 hrs by SRB assay; type: functional, cell-based; settings: A549, 72 h
[37] = system: MCF7; assay: Antitumor activity against human MCF7 cells xenografted in BALB/c mouse assessed as reduction in tumor volume at 23 mg/kg, ip administered thrice a week for 28 days by vernier caliper analysis; type: functional; settings: time 28 day
[38] = system: A549; assay: Induction of apoptosis in human A549 cells assessed as Bcl2 expression at IC50 by ELISA (reference value: 9.04 +/-0.1 ng/ml); type: functional
[39] = system: MCF7; assay: Induction of apoptosis in human MCF7 cells assessed as fold change in Bax expression at IC50 by ELISA relative to control; type: functional
[40] = system: MCF7; assay: Antiproliferative activity against human MCF-7 cells assessed as inhibition of cell growth at 100 microM measured after 72 hrs by SRB assay; type: functional
[41] = system: A549; assay: Induction of apoptosis in human A549 cells assessed as fold change in caspase-9 expression at IC50 by ELISA relative to control; type: functional

O=c1[nH]cc(F)c(=O)[nH]1 [FLUOROURACIL]
IC50 [1]: 590 nM
Activity [2]: 28.08%
Activity [3]: 24.5 g
fold change (FC) [4]: 11.8
IC50 [5]: 520 nM
inhibition at 100 µM [6]: 80.7%
Activity [7]: 23.84%
Activity [8]: 37.82%
Activity [9]: 20.68%
Activity [10]: 13.98 ng/mL
Activity [11]: 289.9 pg/mL
Activity [12]: 4.29%
fold change (FC) [13]: 0.68
IC50 [14]: 78500 nM
fold change (FC) [15]: 0.3
Activity [16]: 7.26%
inhibition at 100 µM [17]: 89.3%
fold change (FC) [18]: 14
Activity [19]: 20.87 ng/mL
fold change (FC) [20]: 1.5
Activity [21]: 376.9 pg/mL
Activity [22]: 27.52%
LD50 at 72 h [23]: 57.2 mg/kg
Activity [24]: 17.71%
Activity [25]: 24.97%
Activity [26]: 2.55%
Activity [27]: 42.07%
Activity [28]: 36.47%
Activity [29]: 34.09%
fold change (FC) [30]: 2.3
Activity [31]: 25.71%
fold change (FC) [32]: 8.93
Activity [33]: 24.97%
Activity [34]: 3.11%
Activity [35]: 2.23 ng/mL
IC50 [36]: 690 nM
Activity [37]: 0.41 cm3
Activity [38]: 6.21 ng/mL
fold change (FC) [39]: 6.37
inhibition at 100 µM [40]: 90.7%
fold change (FC) [41]: 11.63
